Read-outs that look alike come from different tables or passages of the source.
Target: human BCL6 BTB domain (Trx-6xHis-BCL6) (Homo sapiens (Human), UniProt P41182)
Test: HTRF in vitro assay (BCL6 BTB domain / BCOR-AF633 peptide)
Assay type: binding
Conditions: for IC50: read-out: HTRF pIC50 (converted)
[1] = further generated data (Table 1b), 1 nM Trx-6xHis-BCL6, 0.5 nM anti-6xHis-Terbium cryptate
[2] = initially generated data (Table 1a), 10 nM Trx-6xHis-BCL6, 1 nM anti-6xHis-Terbium cryptate

| Compound | HTRF pIC50 [1] | HTRF pIC50 [2] | other results |
| --- | --- | --- | --- |
| CCNC(=O)C(C)(C)Nc1cc(=O)n(C)c2ccc(Nc3ccnc(Cl)c3C#N)cc12 [Example 3h, 2-((6-((2-Chloro-3-cyanopyridin-4-yl)amino)-1-methyl-2-oxo-1,2-dihydroquinolin-4-yl)amino)-N-ethyl-2-methylpropanamide] | 6.41 | 6.40 |  |
| CNC(=O)c1cc(Nc2ccc3c(c2)c(N[C@H]2CCC[C@H]2OC)cc(=O)n3C)c(C#N)c(Cl)n1 (racemic) [Example 19g, rac-6-chloro-5-cyano-4((4-(((1S,2R)-2-methoxycyclopentyl)amino)-1-methyl-2-oxo-1,2-dihydroquinolin-6-yl)amino)-N-methylpicolinamide] |  |  | IC50 [1]: 851 nM |
| CNC(=O)[C@@H](C)Nc1cc(=O)[nH]c2ccc(Nc3ccnc(Cl)c3C#N)cc12 [Example 3p, (R)-2-((6-((2-chloro-3-cyanopyridin-4-yl)amino)-2-oxo-1,2-dihydroquinolin-4-yl)amino)-N-methylpropanamide] | 6.61 | 6.61 |  |
| CC(Nc1cc(=O)n(C)c2ccc(Nc3ccnc(Cl)c3C#N)cc12)c1nc[nH]n1 (stereo not drawn) [Example 1e, 2-chloro-4-[[1-methyl-2-oxo-4-[1-(1H-1,2,4-triazol-3-yl)ethylamino]-6-quinolyl]amino]pyridine-3-carbonitrile] | 6.08 | 6.50 |  |
| CC(CCO)Nc1nc(=O)n(C)c2ccc(Nc3ccnc(Cl)c3C#N)cc12 (stereo not drawn) [Example 1k, 2-chloro-4-[[4-[(3-hydroxy-1-methyl-propyl)amino]-1-methyl-2-oxo-quinazolin-6-yl]amino]pyridine-3-carbonitrile] | 5.95 | 6.19 |  |
| CNC(=O)c1cc(Nc2ccc3c(c2)c(NC(C)(C)C)cc(=O)n3C)c(C#N)c(Cl)n1 [Example 7c, 4-((4-(tert-butylamino)-1-methyl-2-oxo-1,2-dihydroquinolin-6-yl)amino)-6-chloro-5-cyano-N-methylpicolinamide] | 6.33 |  |  |
| Cn1c(=O)cc(NC2CC2(C)C)c2cc(Nc3cc(C(=O)O)nc(Cl)c3C#N)ccc21 (stereo not drawn) [Example 9j, 6-chloro-5-cyano-4-((4-((2,2-dimethylcyclopropyl)amino)-1-methyl-2-oxo-1,2-dihydroquinolin-6-yl)amino)picolinic acid] | 6.49 |  |  |
| C[C@@H](CCO)Nc1cc(=O)n(C)c2ccc(Nc3ccnc(Cl)c3C#N)cc12 [Example 3n, (S)-2-Chloro-4-((4-((4-hydroxybutan-2-yl)amino)-1-methyl-2-oxo-1,2-dihydroquinolin-6-yl)amino)nicotinonitrile] | 6.01 | 6.31 |  |
| COCCNC(=O)[C@@H](C)Nc1cc(=O)n(C)c2ccc(Nc3ccnc(Cl)c3C#N)cc12 [Example 3e, (R)-2-((6-((2-chloro-3-cyanopyridin-4-yl)amino)-1-methyl-2-oxo-1,2-dihydroquinolin-4-yl)amino)-N-(2-methoxyethyl)propanamide] | 6.42 | 6.59 |  |
| COc1cc(Nc2ccc3c(c2)c(N[C@H](CO)C2CC2)cc(=O)n3C)c(Cl)cn1 [Example 15c, (S)-6-((5-chloro-2-methoxypyridin-4-yl)amino)4-4((1-cyclopropyl-2-hydroxyethyl)amino)-1-methylquinoline-2(1H)-one] |  |  | IC50 [1]: 575 nM |
| Cc1n[nH]c(C(C)Nc2cc(=O)n(C)c3ccc(Nc4ccnc(Cl)c4C#N)cc23)n1 (stereo not drawn) [Example 3c, 2-Chloro-4-((1-methyl-4-((1-(3-methyl-1H-1,2,4-triazol-5-yl)ethyl)amino)-2-oxo-1,2-dihydroquinolin-6-yl)amino)nicotinonitrile] | 6.50 | 6.65 |  |
| Cn1c(=O)cc(NC(C)(C)c2ncccn2)c2cc(Nc3cc(C(=O)N4CC(CC#N)C4)nc(Cl)c3C#N)ccc21 [Example 8h, 2-chloro-6-(3-(cyanomethyl)azetidine-1-carbonyl)-4-((1-methyl-2-oxo-4-((2-(pyrimidin-2-yl)propan-2-yl)amino)-1,2-dihydroquinolin-6-yl)amino)nicotinonitrile] | 7.68 |  |  |
| C[C@@H]1CN(c2cc(Nc3ccc4c(c3)c(N[C@H](C)C3CC3)cc(=O)n4C)c(Cl)cn2)C[C@H](C)O1 [Example 6h, 6-((5-chloro-2-((2S,6R)-2,6-dimethylmorpholino)pyridin-4-yl)amino)-4-(((R)-1-cyclopropylethyl)amino)-1-methylquinolin-2(1H)-one] | 6.00 |  |  |
| Cn1c(=O)cc(NC2(C)CC2)c2cc(Nc3cc(C(=O)O)nc(Cl)c3C#N)ccc21 [Example 2c, 6-chloro-5-cyano-4-[[1-methyl-4-[(1-methylcyclopropyl)amino]-2-oxo-6-quinolyl]amino]pyridine-2-carboxylic acid] | 6.38 | 6.36 |  |
| CC(Nc1cc(=O)n(C)c2ccc(Nc3cc(C(=O)O)nc(Cl)c3C#N)cc12)c1ncc(C2CC2)cn1 (stereo not drawn) [Example 9p, 6-chloro-5-cyano-4-((4-((1-(5-cyclopropylpyrimidin-2-yl)ethyl)amino)-1-methyl-2-oxo-1,2-dihydroquinolin-6-yl)amino)picolinic acid] | 7.25 |  |  |
| CC(Nc1cc(=O)n(C)c2ncc(Nc3ccnc(Cl)c3Cl)cc12)c1ncccn1 (stereo not drawn) [Example 6e, 6-((2,3-dichloropyridin-4-yl)amino)-1-methyl-4-((1-(pyrimidin-2-yl)ethyl)amino)-1,8-naphthyridin-2(1H)-one] | 6.28 |  |  |
| CC[C@@H]1C[C@H]1Nc1cc(=O)n(C)c2ccc(Nc3cc(C(=O)O)nc(Cl)c3C#N)cc12 (racemic) [Example 9i, rac-6-chloro-5-cyano-4-((4-(((1R,2R)-2-ethylcyclopropyl)amino)-1-methyl-2-oxo-1,2-dihydroquinolin-6-yl)amino)picolinic acid] |  |  | IC50 [1]: 245 nM |
| CC(Nc1cc(=O)n(Cc2ccccc2)c2ccc(Nc3cc(C(=O)O)nc(Cl)c3C#N)cc12)c1ncccn1 (stereo not drawn) [Example 9q, 4-((1-benzyl-2-oxo-4-((1-(pyrimidin-2-yl)ethyl)amino)-1,2-dihydroquinolin-6-yl)amino)-6-chloro-5-cyanopicolinic acid] | 6.81 |  |  |
| CCNC(=O)C(C)Nc1cc(=O)n(C)c2ccc(Nc3ccnc(Cl)c3C#N)cc12 (racemic) [Example 3k, rac-2-((6-((2-Chloro-3-cyanopyridin-4-yl)amino)-1-methyl-2-oxo-1,2-dihydroquinolin-4-yl)amino)-N-ethylpropanamide] |  |  | IC50 [2]: 676 nM |
| C#CCCNC(=O)[C@@H](C)Nc1cc(=O)n(C)c2ccc(Nc3ccnc(Cl)c3C#N)cc12 [Example 3f, (R)-N-(But-3-yn-1-yl)-2-((6-((2-chloro-3-cyanopyridin-4-yl)amino)-1-methyl-2-oxo-1,2-dihydroquinolin-4-yl)amino)propanamide] | 6.71 | 6.48 |  |
| CC(Nc1cc(=O)n(C)c2ccc(Nc3ccnc(Cl)c3C#N)cc12)c1nccs1 (stereo not drawn) [Example 1s, 2-chloro-4-[[1-methyl-2-oxo-4-(1-thiazol-2-ylethylamino)-6-quinolyl]amino]pyridine-3-carbonitrile] | 6.07 | 6.03 |  |
| C[C@@H](Nc1cc(=O)n(C)c2ccc(Nc3cc(C(=O)O)nc(Cl)c3C#N)cc12)C1CC1 [Example 9b, (R)-6-chloro-5-cyano-4-((4-((1-cyclopropylethyl)amino)-1-methyl-2-oxo-1,2-dihydroquinolin-6-yl)amino)picolinic acid] | 7.13 |  |  |
| C#CC1(Nc2cc(=O)n(C)c3ccc(Nc4cc(C(=O)O)nc(Cl)c4C#N)cc23)CC1 [Example 9h, 6-chloro-5-cyano-4-((4-((1-ethynylcyclopropyl)amino)-1-methyl-2-oxo-1,2-dihydroquinolin-6-yl)amino)picolinic acid] | 6.77 |  |  |

The next lines start with results.

| HTRF pIC50 [1] | HTRF pIC50 [2] | Compound | other results |
| --- | --- | --- | --- |
| 6.49 |  | Cc1cc(C)n(-c2ncc(Cl)c(Nc3ccc4c(c3)c(NC(C)c3ncccn3)cc(=O)n4C)n2)n1 (stereo not drawn) [Example 14f, 6-((5-chloro-2-(3,5-dimethyl-1H-pyrazol-1-yl)pyrimidin-4-yl)amino)-1-methyl-4-((1-(pyrimidin-2-yl)ethyl)amino)quinolin-2(1H)-one] |  |
| 6.30 |  | Cc1nccc(Nc2ccc3c(c2)c(NC(C)c2ncccn2)cc(=O)n3C)c1C#N (stereo not drawn) [Example 18a, 2-methyl-4-((1-methyl-2-oxo-4-((1-(pyrimidin-2-yl)ethyl)amino)-1,2-dihydroquinolin-6-yl)amino)nicotinonitrile] |  |
| 6.58 |  | CC(Nc1nc(=O)n(C)c2ccc(Nc3nc(N4C[C@H](C)C[C@H](C)C4)ncc3Cl)cc12)c1ncccn1 (stereo partly drawn) [Example 12e, 6-((5-chloro-2-((3R,5S)-3,5-dimethylpiperidin-1-yl)pyrimidin-4-yl)amino)-1-methyl-4-((1-(pyrimidin-2-yl)ethyl)amino)quinazolin-2(1H)-one:formic acid (1:1)] |  |
| 6.36 |  | Cc1nc(N2CCC(C(=O)N(C)C)CC2)nc(Nc2ccc3c(c2)c(NC(C)(C)c2ncccn2)cc(=O)n3C)c1Cl [Example 16c, 1-(5-chloro-4-methyl-6-((1-methyl-2-oxo-4((2-(pyrimidin-2-yl)propan-2-yl)amino)-1,2-dihydroquinolin-6-yl)amino)pyrimidin-2-yl)-N,N-dimethylpiperidine-4-carboxamide] |  |
| 6.11 |  | CC(Nc1cc(=O)n(C)c2ncc(Nc3nc(N4CCC(F)(F)CC4)ncc3Cl)cc12)c1ncccn1 (stereo not drawn) [Example 17b, 6-((5-chloro-2-(4,4-difluoropiperidin-1-yl)pyrimidin-4-yl)amino)-1-methyl-4-((1-(pyrimidin-2-yl)ethyl)amino)-4,/- naphthyridin-2(1H)-one] |  |
| 6.11 |  | CC(Nc1cc(=O)n(C)c2ccc(Nc3nc(N4CCc5nn(C)cc5C4)ncc3Cl)cc12)c1ncccn1 (stereo not drawn) [Example 17k, 6-((5-chloro-2-(2-methyl-2,4,6,7-tetrahydro-5H-pyrazolo[4,3-c]pyridin-5-yl)pyrimidin-4-yl)amino)-1-methyl-4-((1-(pyrimidin-2-yl)ethyl)amino)quinolin-2(1H)-one] |  |

Reference: patent publication US11161839B2, “2-quinolone derived inhibitors of BCL6” (Cancer Research Technology Limited, priority 2017, dated 2021)
